ChEMBL document CHEMBL5537111, “Structure and function of SARS-CoV and SARS-CoV-2 main proteases and their inhibition: A comprehensive review” (Eur J Med Chem, 2023)

Assay: Inhibition of SARS-CoV-2 3CL protease Q189A mutant by FRET assay
Set-up: species or system Severe acute respiratory syndrome coronavirus 2

With CC1(C)CCC(CN2CCN(c3ccc(C(=O)NS(=O)(=O)c4ccc(NCC5CCOCC5)c([N+](=O)[O-])c4)c(Oc4cnc5[nH]ccc5c4)c3)CC2)=C(c2ccc(Cl)cc2)C1 [VENETOCLAX] as the compound, how does the IC50 read?
Its IC50 is 3.18 µM.
